Laboratory results reported in PubChem BioAssay AID1963838 (Molecular Pharmacology Branch, DTP, NCI, 2024).

Test system: 855422-203-R-J1-PDC complex spheroid viability
Experiment: Anticancer human tumor 855422-203-R-J1-PDC patient-derived bladder carcinoma cell line growth inhibition [POLQ]
Details: for IC50: curve of first compound; for viability, T/C: stronger effect = lower value
Summary of the method: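 Patient-derived tumour cells were co-cultured with HUVEC and mesenchymal stem cells as multicellular spheroids at 37 °C. They were treated with POLQ inhibitors (novobiocin, ART-558, RP6685) alone or combined with other agents. Top concentrations were at or near clinical Cmax (otherwise 10 microM; SN-38 at 1 microM), decreasing in half-log steps.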

[1] = second compound 0.0316 µM, first compound 0.0316 µM
[2] = second compound 0.0316 µM, first compound 0.1 µM
[3] = second compound 0.0316 µM, first compound 0.316 µM
[4] = second compound 0.0316 µM, first compound 1 µM
[5] = second compound 0.0316 µM, first compound 3.16 µM
[6] = second compound 0.0316 µM, first compound 10 µM
[7] = second compound 0.1 µM, first compound 0.0316 µM
[8] = second compound 0.1 µM, first compound 0.1 µM
[9] = second compound 0.1 µM, first compound 0.316 µM
[10] = second compound 0.1 µM, first compound 1 µM
[11] = second compound 0.1 µM, first compound 3.16 µM
[12] = second compound 0.1 µM, first compound 10 µM
[13] = second compound 0.316 µM, first compound 0.0316 µM
[14] = second compound 0.316 µM, first compound 0.1 µM
[15] = second compound 0.316 µM, first compound 0.316 µM
[16] = second compound 0.316 µM, first compound 1 µM
[17] = second compound 0.316 µM, first compound 3.16 µM
[18] = second compound 0.316 µM, first compound 10 µM
[19] = second compound 1 µM, first compound 0.0316 µM
[20] = second compound 1 µM, first compound 0.1 µM
[21] = second compound 1 µM, first compound 0.316 µM
[22] = second compound 1 µM, first compound 1 µM
[23] = second compound 1 µM, first compound 3.16 µM
[24] = second compound 1 µM, first compound 10 µM
[25] = second compound 3.16 µM, first compound 0.0316 µM
[26] = second compound 3.16 µM, first compound 0.1 µM
[27] = second compound 3.16 µM, first compound 0.316 µM
[28] = second compound 3.16 µM, first compound 1 µM
[29] = second compound 3.16 µM, first compound 3.16 µM
[30] = second compound 3.16 µM, first compound 10 µM
[31] = second compound 10 µM, first compound 0.0316 µM
[32] = second compound 10 µM, first compound 0.1 µM
[33] = second compound 10 µM, first compound 0.316 µM
[34] = second compound 10 µM, first compound 1 µM
[35] = second compound 10 µM, first compound 3.16 µM
[36] = second compound 10 µM, first compound 10 µM
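Further: spheroids exposed to compounds for seven days before readout.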

SMILES: C#Cc1c(F)ccc2cc(O)cc(-c3ncc4c(N5CC6CCC(C5)N6)nc(OCC56CCCN5CC(F)C6)nc4c3F)c12 (stereo unspecified) + Cc1cccc(N(C)C(=O)C2C(O)CCN2c2nc(C)cc(C(F)(F)F)c2C#N)c1
- IC50 (second compound 0.0316 µM): > 10 µM
- IC50 (second compound 0.1 µM): > 10 µM
- IC50 (second compound 0.316 µM): > 10 µM
- IC50 (second compound 1 µM): > 10 µM
- IC50 (second compound 3.16 µM): > 10 µM
- IC50 (second compound 10 µM): > 10 µM
- viability, T/C [1]: 106%
- viability, T/C [2]: 105%
- viability, T/C [3]: 108%
- viability, T/C [4]: 101%
- viability, T/C [5]: 105%
- viability, T/C [6]: 103%
- viability, T/C [7]: 103%
- viability, T/C [8]: 103%
- viability, T/C [9]: 102%
- viability, T/C [10]: 96.7%
- viability, T/C [11]: 103%
- viability, T/C [12]: 103%
- viability, T/C [13]: 106%
- viability, T/C [14]: 103%
- viability, T/C [15]: 99.4%
- viability, T/C [16]: 97.4%
- viability, T/C [17]: 114%
- viability, T/C [18]: 110%
- viability, T/C [19]: 109%
- viability, T/C [20]: 99.7%
- viability, T/C [21]: 106%
- viability, T/C [22]: 96.8%
- viability, T/C [23]: 111%
- viability, T/C [24]: 113%
- viability, T/C [25]: 101%
- viability, T/C [26]: 92.3%
- viability, T/C [27]: 97.5%
- viability, T/C [28]: 98.3%
- viability, T/C [29]: 107%
- viability, T/C [30]: 112%
- viability, T/C [31]: 102%
- viability, T/C [32]: 107%
- viability, T/C [33]: 112%
- viability, T/C [34]: 94.3%
- viability, T/C [35]: 102%
- viability, T/C [36]: 100%

SMILES: C=CC(=O)N1CCN(c2nc(=O)n(-c3c(C)ccnc3C(C)C)c3nc(-c4c(O)cccc4F)c(F)cc23)C(C)C1 (stereo unspecified) + Cc1cccc(N(C)C(=O)C2C(O)CCN2c2nc(C)cc(C(F)(F)F)c2C#N)c1
- IC50 (second compound 0.0316 µM): > 10 µM
- IC50 (second compound 0.1 µM): > 10 µM
- IC50 (second compound 0.316 µM): > 10 µM
- IC50 (second compound 1 µM): > 10 µM
- IC50 (second compound 3.16 µM): > 10 µM
- IC50 (second compound 10 µM): > 10 µM
- viability, T/C [1]: 98.9%
- viability, T/C [2]: 112%
- viability, T/C [3]: 103%
- viability, T/C [4]: 107%
- viability, T/C [5]: 121%
- viability, T/C [6]: 114%
- viability, T/C [7]: 107%
- viability, T/C [8]: 105%
- viability, T/C [9]: 108%
- viability, T/C [10]: 114%
- viability, T/C [11]: 121%
- viability, T/C [12]: 111%
- viability, T/C [13]: 107%
- viability, T/C [14]: 89.5%
- viability, T/C [15]: 99.7%
- viability, T/C [16]: 106%
- viability, T/C [17]: 128%
- viability, T/C [18]: 121%
- viability, T/C [19]: 96.4%
- viability, T/C [20]: 108%
- viability, T/C [21]: 109%
- viability, T/C [22]: 107%
- viability, T/C [23]: 133%
- viability, T/C [24]: 107%
- viability, T/C [25]: 104%
- viability, T/C [26]: 96%
- viability, T/C [27]: 113%
- viability, T/C [28]: 105%
- viability, T/C [29]: 118%
- viability, T/C [30]: 117%
- viability, T/C [31]: 102%
- viability, T/C [32]: 108%
- viability, T/C [33]: 107%
- viability, T/C [34]: 109%
- viability, T/C [35]: 123%
- viability, T/C [36]: 114%

SMILES: CC(C)n1c(=O)n(C)c2cnc3cc(F)c(-c4ccc(OCCCN5CCCCC5)nc4)cc3c21 + Cc1cccc(N(C)C(=O)C2C(O)CCN2c2nc(C)cc(C(F)(F)F)c2C#N)c1
- IC50 (second compound 0.0316 µM): > 10 µM
- IC50 (second compound 0.1 µM): > 10 µM
- IC50 (second compound 0.316 µM): > 10 µM
- IC50 (second compound 1 µM): > 10 µM
- IC50 (second compound 3.16 µM): > 10 µM
- IC50 (second compound 10 µM): 6.79 µM
- viability, T/C [1]: 110%
- viability, T/C [2]: 113%
- viability, T/C [3]: 97.1%
- viability, T/C [4]: 84.5%
- viability, T/C [5]: 87.9%
- viability, T/C [6]: 57.6%
- viability, T/C [7]: 96.1%
- viability, T/C [8]: 104%
- viability, T/C [9]: 95.4%
- viability, T/C [10]: 85.8%
- viability, T/C [11]: 91.8%
- viability, T/C [12]: 56.3%
- viability, T/C [13]: 111%
- viability, T/C [14]: 104%
- viability, T/C [15]: 99.6%
- viability, T/C [16]: 87.4%
- viability, T/C [17]: 85.1%
- viability, T/C [18]: 60%
- viability, T/C [19]: 99.2%
- viability, T/C [20]: 92.6%
- viability, T/C [21]: 109%
- viability, T/C [22]: 94.1%
- viability, T/C [23]: 86.4%
- viability, T/C [24]: 56.2%
- viability, T/C [25]: 109%
- viability, T/C [26]: 101%
- viability, T/C [27]: 112%
- viability, T/C [28]: 97.5%
- viability, T/C [29]: 89.3%
- viability, T/C [30]: 56%
- viability, T/C [31]: 95.9%
- viability, T/C [32]: 97.8%
- viability, T/C [33]: 99.5%
- viability, T/C [34]: 94.2%
- viability, T/C [35]: 81.4%
- viability, T/C [36]: 33.9%
